What was measured:
[1] = Spreading of 10 μL droplet on polystyrene Petri dishes; assay type: physicochemical; conditions: 30 seconds
Method: Spreading was determined by applying a 10 μL droplet, of surfactant solution to polystyrene Petri dishes (Fisher Scientific) and measuring the spread diameter (mm) after 30 seconds, at a relative humidity between 50 and 70% (at 22 to 25° C.). The solution was applied with an automatic pipette to provide droplets of reproducible volume. Deionized water that was further purified with a Millipore filtration system was used to prepare the surfactant solutions.

[2] = Surface tension, Kruss surface tensiometer; assay type: physicochemical; conditions: 0.1 wt % in 0.005M NaCl water
Method: Surface tension was measured using a Kruss surface tensiometer, with a sand blasted platinum blade as the sensor. Solutions of the various components were prepared at 0.1 wt % in 0.005M NaCl water (deionized), as an equilibrium aid.

Molecule	Spread Diameter (mm) ([1]; 0.1% weight surfactant)	Spread Diameter (mm) ([1]; 0.5% weight surfactant)	Surface Tension [2] [mN/m]	Spread Diameter (mm) ([1]; 0.05% weight surfactant)	Spread Diameter (mm) ([1]; 0.3% weight surfactant)
Octylphenolethoxylate, containing 10 polyoxyethylene units [OPE, reference compound]	9	10	31.8		
C[Si](C)(C)C[Si](C)(C)CCCOCCOCCOCCOCCO [Product 6]	45	47	22.5	40	53
C[Si](C)(C)CC[Si](C)(C)CCCOCCOCCOCCOCCO [Product 7]	42	49	22.7	30	48

Further lines, results first:

Spread Diameter (mm) ([1]; 0.1% weight surfactant)	Spread Diameter (mm) ([1]; 0.5% weight surfactant)	Surface Tension [2] [mN/m]	Spread Diameter (mm) ([1]; 0.05% weight surfactant)	Spread Diameter (mm) ([1]; 0.3% weight surfactant)	Molecule
7	7	26.7			C[Si](C)(C)CC[Si](C)(C)CCCOCCOCCOCCOCCOCCOCCOCCOCCOCCOCCOCCO [Product 9]
7	7	27.7			C[Si](C)(C)C[Si](C)(C)CCCOCCOCCOCCOCCOCCOCCOCCOCCOCCOCCOCCO [Product 8]

From patent publication US20070249560A1, “Hydrolysis resistant organomodified silyated surfactants” (priority 2006, published 2007)
